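Cultured in 96-well plates, cells were exposed to test compound for 48 hours across five concentrations. GI50 is the concentration that inhibits growth by half.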 Calls of active or inactive are those of the source. Rule as the data show it: active = GI50 up to about 1.1 µM and inactive = higher.
Tests used:
Assay in all cases: DTP human tumour cell line panel, 48 h
A549 = system: A549
ACHN = system: ACHN
HCT-116 = system: HCT-116
HOP-62 = system: HOP-62
HT-29 = system: HT-29
KM12 = system: KM12
Malme-3M = system: Malme-3M
NCI-H23 = system: NCI-H23
OVCAR-8 = system: OVCAR-8
RXF 393 = system: RXF 393
SF-268 = system: SF-268
SF-539 = system: SF-539
SK-MEL-2 = system: SK-MEL-2
SK-MEL-5 = system: SK-MEL-5
SK-OV-3 = system: SK-OV-3
SN12C = system: SN12C
UACC-62 = system: UACC-62
Hs-578T = system: Hs-578T
MDA-N = system: MDA-N

Row | SMILES | GI50 (A549) | GI50 (ACHN) | GI50 (HCT-116) | GI50 (HOP-62) | GI50 (HT-29) | GI50 (KM12) | GI50 (Malme-3M) | GI50 (NCI-H23) | GI50 (OVCAR-8) | GI50 (RXF 393) | GI50 (SF-268) | GI50 (SF-539) | GI50 (SK-MEL-2) | GI50 (SK-MEL-5) | GI50 (SK-OV-3) | GI50 (SN12C) | GI50 (UACC-62) | GI50 (Hs-578T) | GI50 (MDA-N)
1 | CSC(SC)=C1Sc2cccc(Cl)c2S1 | > 100 µM (inactive) | 74 µM (inactive) | 41.5 µM (inactive) | > 100 µM (inactive) | 29 µM (inactive) | 83 µM (inactive) | > 100 µM (inactive) | 55.2 µM (inactive) | 92.5 µM (inactive) | 43.7 µM (inactive) | > 100 µM (inactive) | 74.6 µM (inactive) | 17.9 µM (inactive) | 33.3 µM (inactive) | 98.4 µM (inactive) | > 100 µM (inactive) | 95.1 µM (inactive) | – | –
2 | COc1ccc(OC(=O)CC2Cc3cc(OC)c(OC)c(OC)c3-c3ccc(SC)c(=O)cc32)cc1 (configuration not stated) | 0.762 µM (active) | 0.792 µM (active) | 0.156 µM (active) | 0.183 µM (active) | 0.342 µM (active) | 0.107 µM (active) | 0.383 µM (active) | 0.421 µM (active) | 0.27 µM (active) | 0.115 µM (active) | 2.74 µM (inactive) | 0.114 µM (active) | 2.14 µM (inactive) | 0.378 µM (active) | 0.0277 µM (active) | 0.3 µM (active) | 0.232 µM (active) | – | –
3 | O=C1CCCCC/C1=C\c1ccc(Cl)cc1 | 36.1 µM (inactive) | 32.1 µM (inactive) | 35.4 µM (inactive) | 99.8 µM (inactive) | 21.8 µM (inactive) | 17.7 µM (inactive) | 52.6 µM (inactive) | 31.6 µM (inactive) | – | – | 14.5 µM (inactive) | – | 34.8 µM (inactive) | 13.9 µM (inactive) | 60 µM (inactive) | 35.3 µM (inactive) | 25.2 µM (inactive) | 20.8 µM (inactive) | 28.6 µM (inactive)
4 | COc1ccccc1NC(=O)CC(=O)N1N=C(C)C(/N=N/c2ccc(S(N)(=O)=O)cc2)C1=O (configuration not stated) | > 100 µM (inactive) | > 100 µM (inactive) | > 100 µM (inactive) | > 100 µM (inactive) | > 100 µM (inactive) | > 100 µM (inactive) | > 100 µM (inactive) | > 100 µM (inactive) | > 100 µM (inactive) | > 100 µM (inactive) | > 100 µM (inactive) | > 100 µM (inactive) | > 100 µM (inactive) | > 100 µM (inactive) | > 100 µM (inactive) | > 100 µM (inactive) | > 100 µM (inactive) | – | –
